Key:
[1] = system: RPMI/8226 multiple myeloma cell line; assay: Percent survival of cells, multiple myeloma versus leukemia line (FIG. 2); type: cell-based; settings: FIG. 2, percent survival
From the text: Bortezomib (BZM), the first proteasome inhibitor to reach the clinic, is being used to treat patients with multiple myeloma and mantle cell lymphoma, and this is reflective of this agent's differential potency in different tumor cell types.

[2] = system: ubiquitinated proteins (proteasome activity) in REH cells; assay: Western blot with anti-ubiquitin antibody in treated REH cells (FIG. 3); type: cell-based, human; settings: increasing concentrations
From the text: An antibody against ubiquitin to reveal the presence of ubiquitinated proteins, which accumulate (and present as a smear, due to different molecular weights) in response to the inhibition of proteasome activity. Actin was used as a loading control.

proteasome = assay: Syringolin A treatment of a human neuroblastoma cell line; type: cell-based; settings: 25 μM
From the text: They are members of a bioactive natural product family and includes the glidobactins/cepafungins now referred to as the syrbactins. Crystallography established that both syringolin A and B form a covalent adduct with the proteasome via conjugate addition of the N-terminal threonine hydroxyl group to their α,β-unsaturated lactams. Given the known properties of proteasome inhibitors, the action of syringolin A in cancer cells was investigated.

| SMILES | cytotoxicity in RPMI/8226 multiple myeloma cells compared with REH acute lymphocytic leukemia cells [1] | accumulation of ubiquitinated proteins [2] | accumulation of ubiquitinated proteins (proteasome) | proteasome activity (proteasome) |
| --- | --- | --- | --- | --- |
| CC(C)C[C@H](NC(=O)[C@H](Cc1ccccc1)NC(=O)c1cnccn1)B(O)O [BZM, Bortezomib] | more cytotoxic to multiple myeloma cells | substantial accumulation of ubiquitinated proteins | – | – |
| CC(C)[C@H](NC(=O)N[C@H](C(=O)N[C@H]1/C=C/CCNC(=O)/C=C/[C@H](C(C)C)NC1=O)C(C)C)C(=O)O [syringolin A] | – | – | time-dependent accumulation of ubiquitinated proteins | dose-dependent decrease in proteasome activity |

From patent US9783572B2, “Synthesis of syrbactin proteasome inhibitors” (The Regents of the University of California, priority 2009, dated 2017)
